In patent US20130315843A1, “COMPOSITION FOR REDUCTION OF TRPA1 AND TRPV1 SENSATIONS” (priority 2012, published 2013):
“And” between values parts separate entries of the source, which are not always exact repeats. Equal entries are not always repeated. Where two headings read alike, the source gives them in different places.

Experiments:
[1] = concentration where the cooling effect can be clearly recognized; cited from earlier work
human TRPV1 = human TRPV1 (Homo sapiens, UniProt Q8NER1); conditions: control 350 nM capsaicin
Sequence of human TRPV1 (Q8NER1 whole entry): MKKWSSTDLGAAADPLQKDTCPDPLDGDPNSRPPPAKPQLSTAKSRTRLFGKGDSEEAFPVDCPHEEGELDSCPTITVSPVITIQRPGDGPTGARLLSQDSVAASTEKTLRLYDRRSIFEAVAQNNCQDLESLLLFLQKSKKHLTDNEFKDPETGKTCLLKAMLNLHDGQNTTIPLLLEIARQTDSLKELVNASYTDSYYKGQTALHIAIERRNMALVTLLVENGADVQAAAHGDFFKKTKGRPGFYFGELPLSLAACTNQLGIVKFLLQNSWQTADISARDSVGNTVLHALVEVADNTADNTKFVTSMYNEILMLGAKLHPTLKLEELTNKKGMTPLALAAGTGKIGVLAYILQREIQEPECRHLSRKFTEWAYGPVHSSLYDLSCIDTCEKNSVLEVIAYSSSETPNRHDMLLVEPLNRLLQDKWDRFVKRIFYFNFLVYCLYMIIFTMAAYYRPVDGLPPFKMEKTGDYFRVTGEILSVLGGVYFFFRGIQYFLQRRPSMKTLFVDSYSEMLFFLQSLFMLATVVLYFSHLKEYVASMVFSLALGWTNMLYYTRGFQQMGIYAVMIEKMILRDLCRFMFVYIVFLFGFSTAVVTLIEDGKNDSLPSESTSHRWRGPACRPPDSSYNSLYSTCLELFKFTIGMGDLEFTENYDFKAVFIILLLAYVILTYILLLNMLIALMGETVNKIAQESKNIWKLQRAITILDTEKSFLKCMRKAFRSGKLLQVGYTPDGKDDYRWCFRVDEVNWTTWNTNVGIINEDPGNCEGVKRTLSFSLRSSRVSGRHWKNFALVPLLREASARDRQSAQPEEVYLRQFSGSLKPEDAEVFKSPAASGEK
Procedure: Cells were detached with addition of 10 ml of PBS (phosphate buffered saline) by hand shaking gently. Cells were transferred to a 50 ml tube and centrifuged at 850 rpm for 3 minutes to remove PBS.
(§1) The pelleted cells were re-suspended in 10 ml assay buffer and 90 μl aliquots (˜50,000 cells) per well delivered to a 96-well assay plate containing 10 μl of test compounds (1 mM in assay buffer, final concentration 100 μM) or buffer control and incubated at room temperature for 30 minutes.

human TRPA1 = human TRPA1 (Homo sapiens, UniProt O75762); test: FLIPR intracellular Ca2+ assay, direct (agonist) effect on TRPA1; assay type: cell-based; parameters: expressed in transfected cells; conditions: for percent hydrogen peroxide activation of TRPA1 compared to control agonist: control 50 μM AITC
Sequence of human TRPA1 (O75762 whole entry): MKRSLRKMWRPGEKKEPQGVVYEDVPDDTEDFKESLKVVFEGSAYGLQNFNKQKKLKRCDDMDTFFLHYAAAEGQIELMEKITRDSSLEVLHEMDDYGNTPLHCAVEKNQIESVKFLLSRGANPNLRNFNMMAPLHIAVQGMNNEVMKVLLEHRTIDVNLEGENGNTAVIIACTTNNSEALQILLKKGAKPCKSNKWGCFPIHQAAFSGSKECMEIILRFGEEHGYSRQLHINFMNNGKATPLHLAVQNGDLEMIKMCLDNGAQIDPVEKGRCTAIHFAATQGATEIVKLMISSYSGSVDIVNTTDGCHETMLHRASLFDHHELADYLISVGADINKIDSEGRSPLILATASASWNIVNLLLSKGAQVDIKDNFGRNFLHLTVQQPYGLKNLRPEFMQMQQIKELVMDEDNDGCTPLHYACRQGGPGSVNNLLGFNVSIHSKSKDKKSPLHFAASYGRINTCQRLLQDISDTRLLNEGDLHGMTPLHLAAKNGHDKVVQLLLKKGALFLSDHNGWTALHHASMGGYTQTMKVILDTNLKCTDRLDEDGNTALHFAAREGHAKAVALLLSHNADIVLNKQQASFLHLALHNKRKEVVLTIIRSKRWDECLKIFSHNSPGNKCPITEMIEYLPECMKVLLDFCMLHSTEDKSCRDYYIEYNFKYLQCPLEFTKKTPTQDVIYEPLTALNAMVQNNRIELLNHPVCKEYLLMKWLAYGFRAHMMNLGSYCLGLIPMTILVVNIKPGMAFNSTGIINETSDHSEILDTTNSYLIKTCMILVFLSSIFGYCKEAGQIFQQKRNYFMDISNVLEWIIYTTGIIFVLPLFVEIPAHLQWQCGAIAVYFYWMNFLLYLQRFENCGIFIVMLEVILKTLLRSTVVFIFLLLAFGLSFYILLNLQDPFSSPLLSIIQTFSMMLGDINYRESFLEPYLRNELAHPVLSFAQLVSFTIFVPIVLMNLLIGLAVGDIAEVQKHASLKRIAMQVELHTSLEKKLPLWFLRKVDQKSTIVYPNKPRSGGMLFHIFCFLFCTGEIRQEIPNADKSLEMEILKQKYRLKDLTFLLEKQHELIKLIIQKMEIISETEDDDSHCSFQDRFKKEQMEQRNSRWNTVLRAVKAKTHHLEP
Procedure: After centrifugation, a pellet of cells was formed in the bottom of the tube separating them from the supernatant solution.
as §1

In the case of `CC(C)[C@@H]1CC[C@@H](C)C[C@@H]1O` [1-neomenthol], the cooling threshold [1] is given as “about 3,000 ppb”.
With `OO` [H2O2, hydrogen peroxide] the “percent hydrogen peroxide activation of TRPV1 compared to control agonist” value (human TRPV1; H2O2 1 μM) was 1.51%, the “percent hydrogen peroxide activation of TRPV1 compared to control agonist” value (human TRPV1; H2O2 10 μM) was 3.10% and the “percent hydrogen peroxide activation of TRPV1 compared to control agonist” value (human TRPV1; H2O2 100 μM) was 17.45%. The “percent hydrogen peroxide activation of TRPV1 compared to control agonist” value (human TRPV1; H2O2 200 μM) was 21.18%, the “percent hydrogen peroxide activation of TRPV1 compared to control agonist” value (human TRPV1; H2O2 500 μM) was 30.21% and the “percent hydrogen peroxide activation of TRPV1 compared to control agonist” value (human TRPV1; H2O2 1 mM) was 41.13%. The “percent hydrogen peroxide activation of TRPV1 compared to control agonist” value (human TRPV1; H2O2 10 mM) was 62.81%, the “percent hydrogen peroxide activation of TRPV1 compared to control agonist” value (human TRPV1; H2O2 100 mM) was 209.29% and the “percent hydrogen peroxide activation of TRPA1 compared to control agonist” value (human TRPA1; H2O2 1 μM) was 1.4%. For the same compound, the “percent hydrogen peroxide activation of TRPA1 compared to control agonist” value (human TRPA1; H2O2 10 μM) was 9.6%, the “percent hydrogen peroxide activation of TRPA1 compared to control agonist” value (human TRPA1; H2O2 100 μM) was 91.4% and the “Average Ca++ Counts” value (human TRPA1; H2O2 200 μM alone, control of each Set 1-4) was 5881.5 Counts and 8721.8 Counts and 10592.2 Counts and 7043.6 Counts. For the same compound, the “percent hydrogen peroxide activation of TRPA1 compared to control agonist” value (human TRPA1; H2O2 200 μM) was 111.7%, the “percent hydrogen peroxide activation of TRPA1 compared to control agonist” value (human TRPA1; H2O2 500 μM) was 129.1% and the “percent hydrogen peroxide activation of TRPA1 compared to control agonist” value (human TRPA1; H2O2 1 mM) was 123.4%. The “percent hydrogen peroxide activation of TRPA1 compared to control agonist” value (human TRPA1; H2O2 10 mM) was 101.3% and the “percent hydrogen peroxide activation of TRPA1 compared to control agonist” value (human TRPA1; H2O2 100 mM) was 296.7%.
In the case of `CC(C)[C@@H]1CC[C@@H](C)C[C@H]1O` [L-menthol], the cooling threshold [1] is given as “about 800 ppb”.
In the case of `CC(C)[C@@H]1CC[C@@H](C)C[C@@H]1O` [d-neomenthol], the cooling threshold [1] is listed as “about 25,000 ppb”.
